Data reported in publication PMC12615753, “Glutathione as a taste modulator: molecular mechanisms of interaction with umami and sweet taste receptors” (Food Chemistry: Molecular Sciences, 2025).

Target: T1, hTAS1R2/hTAS1R3(r1–575) (UniProt Q8TE23+Q923K1, A645S/A698V/A702T/A793V/A807V/C582S/C678S/E725V/E827G/F612A/F622V/F805L/I617V/I740A/I779T/I803L/K818R/L735F/L823M/L825Q/M644L/M706V/M729T/N675D/Q717H/Q757R/Q795R/Q831P/R632Q/R634S/R762C/S576L/S610P/S635P/S637R/S679G/T588V/T694M/T813A/V584A/V718M/V723A/V738A/V744T/V821L/W599R/W676R/W824R/Y598H/Y680C/Y794L)
T1 construct: hTAS1R3(r1–575) consists of the N-terminal extracellular domain of rTAS1R3 and the TMD of hTAS1R3; expressed in transfected cells
T1 sequence (Q8TE23 20-839, stated change not applied): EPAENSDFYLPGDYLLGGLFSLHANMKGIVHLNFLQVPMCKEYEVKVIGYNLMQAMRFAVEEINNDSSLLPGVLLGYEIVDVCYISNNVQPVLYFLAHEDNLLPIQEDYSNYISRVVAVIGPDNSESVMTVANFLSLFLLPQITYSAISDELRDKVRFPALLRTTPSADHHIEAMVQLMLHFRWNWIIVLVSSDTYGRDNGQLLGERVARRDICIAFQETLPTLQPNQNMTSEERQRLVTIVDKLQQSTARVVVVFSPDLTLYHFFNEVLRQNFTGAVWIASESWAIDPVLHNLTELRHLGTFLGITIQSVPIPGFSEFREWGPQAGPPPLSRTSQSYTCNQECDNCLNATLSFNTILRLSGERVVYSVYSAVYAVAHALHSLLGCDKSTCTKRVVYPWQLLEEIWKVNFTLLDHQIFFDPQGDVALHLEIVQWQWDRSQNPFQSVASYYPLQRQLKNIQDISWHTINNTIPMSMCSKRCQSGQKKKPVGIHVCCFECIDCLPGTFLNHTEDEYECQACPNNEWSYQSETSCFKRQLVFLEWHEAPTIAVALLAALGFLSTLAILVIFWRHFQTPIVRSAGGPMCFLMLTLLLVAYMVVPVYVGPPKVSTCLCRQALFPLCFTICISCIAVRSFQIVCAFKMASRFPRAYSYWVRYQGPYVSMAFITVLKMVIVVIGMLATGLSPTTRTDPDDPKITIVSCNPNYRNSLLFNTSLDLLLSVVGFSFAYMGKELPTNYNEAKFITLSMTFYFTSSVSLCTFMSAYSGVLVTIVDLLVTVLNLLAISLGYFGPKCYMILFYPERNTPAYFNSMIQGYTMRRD
T1 sequence (Q923K1 other isoform, or with tags, fused parts or gaps with the stated changes): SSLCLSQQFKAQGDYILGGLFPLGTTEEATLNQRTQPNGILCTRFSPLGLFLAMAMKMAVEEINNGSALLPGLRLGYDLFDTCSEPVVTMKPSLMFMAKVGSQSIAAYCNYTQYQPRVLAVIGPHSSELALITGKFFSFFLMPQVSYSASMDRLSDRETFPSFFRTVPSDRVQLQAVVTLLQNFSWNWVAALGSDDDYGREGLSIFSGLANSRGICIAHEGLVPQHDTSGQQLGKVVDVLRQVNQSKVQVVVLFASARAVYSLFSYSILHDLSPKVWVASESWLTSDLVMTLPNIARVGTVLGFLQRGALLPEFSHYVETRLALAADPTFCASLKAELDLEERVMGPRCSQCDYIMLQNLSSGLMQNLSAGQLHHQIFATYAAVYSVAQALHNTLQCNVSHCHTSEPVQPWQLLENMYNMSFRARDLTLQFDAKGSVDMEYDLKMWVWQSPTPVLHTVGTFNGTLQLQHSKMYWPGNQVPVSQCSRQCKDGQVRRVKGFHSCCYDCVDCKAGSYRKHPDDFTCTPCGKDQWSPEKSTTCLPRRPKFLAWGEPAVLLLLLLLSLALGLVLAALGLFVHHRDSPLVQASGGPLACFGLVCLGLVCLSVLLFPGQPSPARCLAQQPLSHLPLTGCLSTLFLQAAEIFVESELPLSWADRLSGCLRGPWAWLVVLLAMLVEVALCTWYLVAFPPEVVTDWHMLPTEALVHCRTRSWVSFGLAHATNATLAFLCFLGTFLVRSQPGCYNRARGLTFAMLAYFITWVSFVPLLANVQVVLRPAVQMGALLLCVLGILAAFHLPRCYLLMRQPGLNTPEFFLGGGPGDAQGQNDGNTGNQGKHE
Assay: Calcium assay, chimeric TAS1R3 co-expressed with hTAS1R2
Format: cell-based, human, rat
From the text: Chimeric Gα proteins, such as Gα16Gust44, Gα16Gi3 or Gα15i2, are widely used in the functional expression of TAS1R receptors ([Backes et al., 2015]; [Suess et al., 2015]; [Toda et al., 2021], [Toda et al., 2013], [Toda et al., 2018]; [Zhang et al., 2008]). Chimeric Gα15i2 (([Toda et al., 2013]), Supplementary data) was generated by replacing the last five residues of the C-terminal tail of rat Gα15i2 (EINLL) (UniProt number G3V6N8; https://www.uniprot.org/uniprot/) with the counterpart sequence from human GNAI2 (DCGLF) (UniProt number P04899-1) and cloning into the pcDNA3.1/Hygro vector (Invitrogen, Thermo Fisher Scientific, Illkirch, France) between the HindIII and NotI restriction sites, resulting in the plasmid pcDNA3.1-Gα15i2. Chimeric Gα16Gust44 construct have already been reported ([Raliou et al., 2011]). Briefly, Gα16Gust44 was generated by replacing the C-terminal of Gα16 with the C-terminal 44 residues of gustducin. As previously described, hTAS1R1 was amplified from human fungiform papillae cDNA and cloned and inserted into pcDNA3 (Invitrogen), generating pcDNA3-TAS1R1-WT (wild-type) ([Raliou et al., 2011]). […]

Row | EC50 (sucralose alone, Fig. 3B) | SMILES | fold decrease in the EC50 value of sucralose (in the presence of 10 mM GSH)
1 | 485 ± 138 µM | OC[C@H]1O[C@H](O[C@]2(CCl)O[C@H](CCl)[C@@H](O)[C@@H]2O)[C@H](O)[C@@H](O)[C@H]1Cl [sucralose, reference compound] | –
2 | – | N[C@@H](CCC(=O)N[C@@H](CS)C(=O)NCC(=O)O)C(=O)O [GSH, γ-L-glutamyl-L-cysteinyl-glycine] | 5.2 fold
